{
  "source": "patent US9623031B2",
  "about": "“Compositions, methods and kits for treating cancer” (priority 2011, dated 2017)",
  "key": {"[1]": {"tested_on": "FV-LSCs (M34^+Kit^+Sca1^+)", "assay": "Apoptosis of FV-LSCs treated ex vivo (annexin V, flow cytometry)", "format": "cell-based, mouse", "conditions": "25 nM, 36 h, annexin V", "description": "On day 14 after infection, spleens were isolated and a single cell suspension of spleen cells was generated. The cells were filtered through a 70 μm sterile filter and flow-through cells were resuspended in RBC lysis buffer followed by centrifugation. Leukemia stem cells were isolated by FACS. Spleen cells were labeled with anti-Kit, Sca1 (BioLegend, San Diego, Calif.) and M34 antibodies. […] As indicated M34^+Kit^+Sca1^+ cells were cultured in Methocult media (Stem Cell Technologies Vancouver BC) M3334 supplemented with 200 ng/ml Sonic Hedgehog (Shh), 15 ng/ml bone morphogenetic protein-4 (BMP4) (both from R&D Systems Minneapolis, Minn.), and 50 ng/ml stem cell factor (SCF; Peprotech).\nThe cells were stained with annexin V-FITC and analyzed by flow cytometry. […] Means±s.e.m. *P<0.001 compared to vehicle (PBS). […] Inset: Effect of rosiglitazone on the apoptosis of LSC. Rosiglitazone (0.1-2.0 μM) was incubated with LSC in the culture media for 36 h as described earlier and the cells were subjected to annexin-V staining followed by flow cytometry. […] LSC were treated ex vivo with indicated concentrations of each compound for 36 h. Mean±s.e.m. shown *P<0.001."}, "p53 [2]": {"tested_on": "p53", "assay": "p53 expression in FV-LSCs treated ex vivo (RT-PCR, nuclear extracts)", "format": "cell-based, mouse"}, "[3]": {"tested_on": "BCR-ABL^+LSC (Kit^+Sca1^+Lin^−GFP^+)", "assay": "Apoptosis of BCR-ABL+ LSCs treated ex vivo (annexin V, flow cytometry)", "format": "cell-based, mouse", "procedure": "Apoptosis. Apoptosis of LSCs was performed using annexin V as described below in Supplementary Information and Methods.\nApoptosis. The LSCs were diluted in DMEM, resuspended using a 16-gauge needle, and collected by centrifugation. 1×10^5 cells were resuspended in 200 μl of binding buffer (0.1 M HEPES with 1.4 M NaCl, 25 mM CaCl2, pH 7.4). Annexin V FITC (BD Biosciences) was incubated with cells for 15 min on ice followed by flow cytometric analysis.\nThe ability of CyPGs derived from arachidonic acid (2 series PGs) to induce apoptosis was tested in cultures of LSCs from FV infected mice and in the murine CML model. […] 15d-PGJ2 is known as a PPAPγ agonist. […] In FIG. 7C Δ^12-PGJ3, 15d-PGJ2 or 9,10-dihydro-15d-PGJ2 are tested for their ability to induce apoptosis in a murine CML model. […] The cells were stained with annexin V-FITC and analyzed by flow cytometry. Representative of N=4. […] Inset: Effect of rosiglitazone on the apoptosis of LSC. Rosiglitazone (0.1-2.0 μM) was incubated with LSC in the culture media for 36 h as described earlier and the cells were subjected to annexin-V staining followed by flow cytometry. […] LSC were treated ex vivo with indicated concentrations of each compound for 36 h.\n(§1) Following 36 h of incubation, apoptotic cells were quantified by annexin V staining. […] In a related study to address if Δ^12-PGJ3 treatment would cause any degranulation of granulocytes, a rat basophilic cell line ([…]) was treated with 100 nM Δ^12-PGJ3 and the degranulation was followed by quantitating the release of histamine and a second marker of degranulation, hexoseaminidase.\nIn this experiment, 500,000 BCR-ABL+ LSCs were plated in a 24-well plate followed and were treated with 25 nM PGD2Me or 100 nM ZK118182 (both are agonists of DP) for 24 h. GFP^+ cells were analyzed by flow cytometry. These agonists were purchased from Cayman Chemicals, MI."}, "[4]": {"tested_on": "FV-LSCs transplanted into BALB/c-Stk^−/− mice", "description": "Transplant of FV-LSCs into BALB/c-Stk^−/− mice: FV-LSCs were generated as described above. 2.5×10^5 FV-LSCs were transplanted into BALB/c-Stk^−/− mice by retro-orbital injection. Six weeks after transplant the mice were treated with CyPGs or vehicle control as indicated in the text.\nTreatment of Mice with PGs: Mice with FV-induced erythroleukemia or MIGR-BCR-ABL induced CML were treated on the indicated days with CyPGs. Mice were treated with a daily intraperitoneal injection of Δ^12-PGJ3 (0.01-0.1 mg/kg), 15d-PGJ2 (0.1 mg/kg), or 9,10-dihydro-15d-PGJ2 (0.1 mg/kg) for 7 days. All three compounds were formulated with hydroxypropyl-β-cyclodextrin (30% w/v; Sigma; vehicle control).\nStk^−/− mice are resistant to Friend virus infection so the leukemia developed by the transplanted mice is result of the transplanted LSCs and not FV infection. […] LSCs sorted from the spleens of FV-infected mice were transplanted into Stk^−/− mice (on a Balb/c background). After 6 weeks such mice were treated daily for 1 week with vehicle (hydroxypropyl-β-cyclodextrin), 15d-PGJ2 (0.05 mg/kg), or 9,10-dihydro-15d-PGJ2 (0.05 mg/kg) by intraperitoneal injection. The mice were sacrificed 51 days post LSC transplantation for analysis. An analysis of spleens of mice comparing splenomegaly in vehicle, 15d-PGJ2, or 9,10-dihydro-15d-PGJ2 treated transplanted mice was performed. Spleen weight compared to control (untransplanted mice) after treatment and WBC counts in the peripheral blood of the mice after treatment were examined, and a flow cytometric analysis of the spleen of untransplanted and LSC transplanted mice after treatment was performed. All data were mean±s.e.m. *p<0.05 compared to control or 9,10-dihydro-15d-PGJ2 treated groups. N=5 per group."}, "p53 [5]": {"tested_on": "p53", "assay": "p53 expression in BCR-ABL+ LSCs treated ex vivo", "format": "cell-based, mouse"}, "[6]": {"tested_on": "Friend virus (FV)-induced erythroleukemia", "assay": "FV-induced erythroleukemia in FV-infected mice, intraperitoneal treatment", "format": "in vivo, mouse", "source_text": "FV-induced erythroleukemia and production of FV leukemia stem cells (FV-LSCs): BALB/c mice were infected with FV as previously described (Subramanian A et al., J Virol. 2008; 82:382-393; Harandi O F et al., J Clin Invest. 2010; 120:4507-4519). On day 14 after infection, spleens were isolated and a single cell suspension of spleen cells was generated. The cells were filtered through a 70 μm sterile filter and flow-through cells were resuspended in RBC lysis buffer followed by centrifugation. Leukemia stem cells were isolated by FACS. Spleen cells were labeled with anti-Kit, Sca1 (BioLegend, San Diego, Calif.) and M34 antibodies. M34 is a monoclonal antibody that recognizes the envelope protein of SFFV (Chesebro B et al., Virology. 1981; 112:131-144) and was used as previously described (Subramanian A et al., J Virol. 2008; 82:382-393). As indicated M34^+Kit^+Sca1^+ cells were cultured in Methocult media (Stem Cell Technologies Vancouver BC) M3334 supplemented with 200 ng/ml Sonic Hedgehog (Shh), 15 ng/ml bone morphogenetic protein-4 (BMP4) (both from R&D Systems Minneapolis, Minn.), and 50 ng/ml stem cell factor (SCF; Peprotech). For CFU-FV assays, cells were plated in methylcellulose media containing fetal calf serum, but lacking added growth factors as previously described (Mager D L et al., Proc Natl Acad Sci USA. 1981; 78:1703-1707).\nComplete blood counts of mice treated with Δ^12-PGJ3 (0.05 mg/kg) were examined. There is no difference in treated mice and untransplanted control mice in terms of white blood cell counts, red blood cell counts or platelet counts. Changes in hematological parameters in FV-infected mice upon treatment with CyPGs were examined. FV-infected Balb/c mice were treated with Δ^12-PGJ3 (0.05 mg/kg) intraperitoneally for 7 d following which the mice were sacrificed and hematological parameters were analyzed on an Advia blood analyzer. FV-infected Δ^12-PGJ3 treated mice were compared to infected vehicle controls. N=5 per group, all data are means±s.e.m. *P<0.05. 3% w/v hydroxypropyl-3-cyclodextrin was used as a vehicle in in vivo experiments. Spleen sizes of FV-infected mice that were treated with either vehicle, 9,10-dihydro-15d-PGJ2 (0.05 mg/kg), or 15d-PGJ2 (0.05 mg/kg) were examined; N=3 pre group. Hematological parameters of Balb/c uninfected, infected, and 15d-PGJ2 treated mice were examined. N=5 per group. All data were means±s.e.m. *P<0.05.\nFV-LSC were targeted by 15d-PGJ2 in the spleen of FV-infected mice. FV-infected mice were treated with 15d-PGJ2 or 9,10-dihydro-15d-PGJ2 at 0.05 mg/kg for 7 d. The splenic LSC (M34^+Sca1^+Kit^+) cells were analyzed by flow cytometry on day 14 post infection. […] Uninfected and infected vehicle controls were used for comparison. N=3; *P<0.05. […] The colonies were counted 10-14 days after plating. N=3 mice per group, *p<0.05."}, "[7]": {"tested_on": "primary human AML cells; LSCs (CD34+CD38−CD123+)", "assay": "Apoptosis of primary human AML cells and AML LSCs (annexin V)", "format": "cell-based", "conditions": "CAY10471 10 nM pretreatment, then Δ^12-PGJ3 100 nM", "procedure": "In this experiment, 110,000/well primary AML cells were cultured in above specified media for 6 and 12 hrs. Cells were collected and washed once with ice cold PBS. The cells were resuspended in 200 ul 1× Apoptosis buffer with annexin-V PE to all tubes. The cells were washed in PBS and resuspended in 600 ul PBS and transfer into flow tubes and analyzed for apoptosis (Annexin V+ cells) on FC-500. […] In this experiment, 110,000/well AML cells were cultured in earlier mentioned media for 6 and 12 hrs. Cells were collected and washed once in PBS and resuspended in 200 ul PBS and blocked with FC receptor antibody 10 mins RT. The following antibodies were added: CD38, CD123, CD34, CD117 (BD bioscience) for 1 hr on ice. Cells were washed in PBS once and resuspended in 200 ul of apoptotic buffer, and annexin V was added and incubated for 15 mins. Apoptotic cells (Annexin V+ cells) were counted by flow cytometry. […] Cells were collected and washed once in PBS and resuspended in 200 ul PBS and blocked with FC receptor antibody 10 mins RT. The following antibodies were added: CD38, CD123, CD34 (BD bioscience) for 1 hr on ice. Cells were washed in PBS once and resuspended in 200 ul of apoptotic buffer, and annexin V was added and incubated for 15 mins. Apoptotic cells (Annexin V+ cells) were counted by flow cytometry.\nReferring to the results shown in FIG. 16, these experiments were performed with primary AML stem cells isolated from a patient. […] In an identical experiment, the cells were also treated with a synthetic DP agonist, ZK118182 (100 nM). Apoptosis of cells (by annexin V staining) was measured using flow cytometry."}, "[8]": {"tested_on": "normal HSCs (MSCV-GFP^+HSC)", "assay": "Effect on normal HSCs (MSCV-GFP+ HSC) treated ex vivo", "conditions": "antagonists/inhibitor 10 nM; Δ^12-PGJ3 25 nM; 36 h"}, "[9]": {"tested_on": "Human unfractionated bone marrow cells", "assay": "Colony formation of normal human bone marrow cells in methylcellulose", "conditions": "methylcellulose with multiple growth factors, 12 days", "description": "Human unfractionated bone marrow cells (5×10^5 per well) were plated in methylcellulose complete media containing IL-3, GM-CSF, G-CSF, SCF and Epo supplemented with the indicated concentrations of drugs. Total colonies were counted after 12 days."}, "[10]": {"tested_on": "rat basophilic cell line (RBL-23)", "assay": "Degranulation of basophilic cells (histamine and hexoseaminidase release)", "conditions": "Δ^12-PGJ3 100 nM", "procedure": "as §1"}},
  "note": "“Also recorded” adds a separate entry of the source.",
  "data": [
    {"smiles": "CCCCC/C=C\\C=C1\\C(=O)CC[C@@H]1C/C=C\\CCCC(=O)O", "note": "[9,10-dihydro-15d-PGJ2]", "values": [
      {"measurement": "apoptosis of FV-LSCs", "setting": "[1]", "result": "fail to induce apoptosis; also recorded: no apoptosis"},
      {"measurement": "p53 expression at transcript level", "setting": "p53 [2]; 10 or 25 nM, 12 h", "result": "ineffective"},
      {"measurement": "apoptosis of Sca1+GFP+Kit+ BCR-ABL+LSC from spleen", "setting": "[3]; 25-1000 nM, 36 h", "result": "had no effect; also recorded: ineffective even at high concentrations up to 1 μM"},
      {"measurement": "hematocrit, WBC counts and reticulocyte counts", "setting": "[4]; FV-induced leukemia, FIG. 3C", "result": "had no effect on any parameter tested"},
      {"measurement": "LSCs (M34+Sca1+Kit+) in the spleen", "setting": "[4]; flow cytometry after 1 week i.p. treatment", "result": "did not have any effect on their viability"},
      {"measurement": "splenomegaly", "setting": "[4]; Δ^12-PGJ3 0.025 and 0.05 mg/kg, comparators 0.05 mg/kg, i.p. 1 week", "result": "nor alleviated splenomegaly"},
      {"measurement": "p53 mRNA", "setting": "p53 [5]; 25 nM ex vivo", "result": "ineffective"},
      {"measurement": "LSCs (Sca1+Kit+M34+) in the spleen", "setting": "[6]; 0.05 mg/kg i.p. 7 d, flow cytometry day 14 post infection", "result": "ineffective"},
      {"measurement": "splenomegaly, comparator CyPGs", "setting": "[6]; i.p. 7 days", "result": "did not have any effect on the amelioration of splenomegaly"}
    ]},
    {"smiles": "CN(C1CCc2c(c3ccccc3n2CC(=O)O)C1)S(=O)(=O)c1ccc(F)cc1", "note": "(stereo not shown) [CAY10471, reference compound]", "values": [
      {"measurement": "inhibition of Δ^12-PGJ3-induced apoptosis by DP antagonist", "setting": "[3]; antagonist 10 nM, 2 h pretreatment, then 25 nM Δ^12-PGJ3, 36 h", "result": "inhibited"},
      {"measurement": "block of Δ^12-PGJ3-induced apoptosis of LSCs", "setting": "[7]", "result": "completely blocked the apoptosis"},
      {"measurement": "viability of MSCV-HSC control cells", "setting": "[8]", "result": "not affected"}
    ]},
    {"smiles": "O=c1cc(-c2cccc3c2Sc2ccccc2S3)oc(N2CCOCC2)c1", "note": "[MTPO, 2-Morpholin-4-yl-6-thianthren-1-yl-pyran-4-one]", "values": [
      {"measurement": "block of Δ^12-PGJ3-dependent p53 expression by ATM inhibitors", "setting": "p53 [2]; preincubation, then Δ^12-PGJ3", "result": "blocked the CyPG-dependent expression of p53"},
      {"measurement": "block of Δ^12-PGJ3-induced apoptosis by ATM inhibitor", "setting": "[3]; pretreatment, then 25 nM Δ^12-PGJ3", "result": "blocked the effect of Δ^12-PGJ3 on apoptosis"},
      {"measurement": "block of Δ^12-PGJ3-induced p53 expression by ATM inhibitor", "setting": "p53 [5]; pretreatment", "result": "blocked"},
      {"measurement": "viability of MSCV-HSC control cells", "setting": "[8]", "result": "not affected"}
    ]},
    {"smiles": "CC(C)OC(=O)COCC=CCC1C(Cl)CC(O)C1C=CC(O)C1CCCCC1", "note": "(stereo not drawn) [ZK118182, [[4-[5R-chloro-2Z-[3R-cyclohexyl-3 S-hydroxy-1R-propenyl]-3 S-hydroxycyclopentyl]-2R-butenyl]oxy]-acetic acid, isopropyl ester]", "values": [
      {"measurement": "total colonies of human bone marrow cells", "setting": "[9]", "result": "had no effect"},
      {"measurement": "apoptosis of BCR-ABL+ LSCs by synthetic DP agonists (GFP+ cells)", "setting": "[3]; 25 nM PGD2Me or 100 nM ZK118182, 24 h", "result": "can induce apoptosis of LSCs"}
    ]},
    {"smiles": "C[C@H](CCC(=O)O)C[C@H](C)C[C@H](C)C(=O)/C=C(\\O)[C@H](C)C[C@H](C)C/C=C/[C@@H](C)[C@@H](O)[C@@H](C)[C@@H](O)C[C@@H]1CC[C@@](C)([C@H]2CC[C@@](C)([C@@H](C)O)O2)O1", "note": "[ionomycin]", "values": [
      {"measurement": "degranulation (release of histamine and hexoseaminidase)", "setting": "[10]", "result": "caused extensive production of histamine and hexoseaminidase"}
    ]}
  ]
}
